According to paper PMC9505425, “Targeting of the Mitochondrial TET1 Protein by Pyrrolo[3,2-b]pyrrole Chelators” (International Journal of Molecular Sciences, 2022):
“Also recorded” adds a separate entry of the source.

Key:
TET1 protein = target: T1, TET1 protein (Homo sapiens, UniProt Q8NFU7); assay: Fluorometric TET hydroxylase activity assay with purified TET1 enzyme; format: biochemical; conditions: for inhibitory activity towards TET1: screened at 10^−7 to 10^−4 M
T1 construct: purchased Active Motif, Carlsbad, CA, USA
T1 sequence (Q8NFU7 whole entry): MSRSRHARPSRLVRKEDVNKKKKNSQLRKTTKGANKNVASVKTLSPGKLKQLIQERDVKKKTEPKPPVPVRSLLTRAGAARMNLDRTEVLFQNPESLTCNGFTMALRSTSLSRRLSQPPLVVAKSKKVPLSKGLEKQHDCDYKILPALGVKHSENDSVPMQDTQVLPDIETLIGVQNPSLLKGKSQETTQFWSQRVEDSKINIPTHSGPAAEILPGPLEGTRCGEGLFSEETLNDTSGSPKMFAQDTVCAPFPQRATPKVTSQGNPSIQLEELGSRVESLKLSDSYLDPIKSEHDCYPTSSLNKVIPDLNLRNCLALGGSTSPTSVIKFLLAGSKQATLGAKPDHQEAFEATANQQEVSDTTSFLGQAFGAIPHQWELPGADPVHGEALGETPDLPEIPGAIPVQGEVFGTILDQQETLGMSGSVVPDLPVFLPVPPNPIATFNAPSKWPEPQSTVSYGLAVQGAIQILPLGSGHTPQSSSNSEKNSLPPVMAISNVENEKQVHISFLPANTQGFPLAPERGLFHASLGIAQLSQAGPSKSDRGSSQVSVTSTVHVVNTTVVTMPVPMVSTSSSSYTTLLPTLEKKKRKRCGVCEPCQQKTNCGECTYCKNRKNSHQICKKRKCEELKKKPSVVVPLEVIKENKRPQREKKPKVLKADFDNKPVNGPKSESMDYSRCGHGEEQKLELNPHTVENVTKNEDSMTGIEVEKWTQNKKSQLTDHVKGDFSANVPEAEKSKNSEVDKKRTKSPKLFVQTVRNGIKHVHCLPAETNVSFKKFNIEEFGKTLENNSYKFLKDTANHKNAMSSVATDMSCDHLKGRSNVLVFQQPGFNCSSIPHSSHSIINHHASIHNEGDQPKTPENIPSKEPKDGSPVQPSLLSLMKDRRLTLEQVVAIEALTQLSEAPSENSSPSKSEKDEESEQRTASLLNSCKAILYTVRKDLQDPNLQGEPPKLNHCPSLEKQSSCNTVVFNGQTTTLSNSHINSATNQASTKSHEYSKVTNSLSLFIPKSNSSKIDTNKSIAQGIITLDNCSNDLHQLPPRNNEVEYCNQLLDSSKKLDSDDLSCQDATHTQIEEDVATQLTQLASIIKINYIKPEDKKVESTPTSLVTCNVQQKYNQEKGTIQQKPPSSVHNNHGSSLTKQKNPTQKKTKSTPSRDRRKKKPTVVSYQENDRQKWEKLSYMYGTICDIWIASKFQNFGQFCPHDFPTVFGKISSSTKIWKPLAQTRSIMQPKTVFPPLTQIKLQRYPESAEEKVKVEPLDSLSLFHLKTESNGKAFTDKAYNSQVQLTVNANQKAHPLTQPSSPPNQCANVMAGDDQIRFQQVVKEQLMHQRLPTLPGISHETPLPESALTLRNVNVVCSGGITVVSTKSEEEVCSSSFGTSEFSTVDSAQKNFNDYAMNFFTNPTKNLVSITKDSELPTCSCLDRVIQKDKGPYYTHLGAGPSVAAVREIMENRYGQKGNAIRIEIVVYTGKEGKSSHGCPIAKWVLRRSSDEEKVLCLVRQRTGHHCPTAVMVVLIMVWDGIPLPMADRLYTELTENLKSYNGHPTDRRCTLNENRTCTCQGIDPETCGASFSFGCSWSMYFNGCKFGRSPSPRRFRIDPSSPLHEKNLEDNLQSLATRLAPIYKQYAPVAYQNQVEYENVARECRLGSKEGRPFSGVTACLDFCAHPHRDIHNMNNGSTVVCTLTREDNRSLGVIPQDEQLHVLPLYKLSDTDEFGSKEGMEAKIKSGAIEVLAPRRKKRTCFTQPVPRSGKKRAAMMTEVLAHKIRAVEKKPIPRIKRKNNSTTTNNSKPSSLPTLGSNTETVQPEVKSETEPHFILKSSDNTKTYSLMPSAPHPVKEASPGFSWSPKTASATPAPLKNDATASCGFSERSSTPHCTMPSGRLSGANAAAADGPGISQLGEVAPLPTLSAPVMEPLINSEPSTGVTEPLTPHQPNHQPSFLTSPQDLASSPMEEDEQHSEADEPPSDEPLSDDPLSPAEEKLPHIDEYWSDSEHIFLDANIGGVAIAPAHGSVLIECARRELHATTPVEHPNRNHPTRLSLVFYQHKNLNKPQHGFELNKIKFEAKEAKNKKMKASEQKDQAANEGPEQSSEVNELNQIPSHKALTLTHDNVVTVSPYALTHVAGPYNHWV
Procedure: Figure 4 and Table S1 show the dependence of TET1 activity on the concentration of compound 1.
Compounds 1–6 were tested for the inhibition of the total 5mC hydroxylase TET enzyme using a purified TET1 enzyme (Active Motif, Carlsbad, CA, USA) by a fluorometric TET hydroxylase activity quantification kit (Abcam, Cambridge, UK). A total of 25 µg of purified TET1 protein was diluted in a TET assay buffer in a 5 mL volumetric flask, containing α-ketoglutarate and ferric sulfate. The concentrations of ascorbic acid, α-ketoglutarate, and ferric sulfate in the diluted TET assay buffer were 2, 1, and 0.1 mM, respectively. Tested compounds were dissolved in DMSO to obtain a concentration of 0.01 M. DMSO solutions of compounds 1–6 were then diluted with a TET assay buffer to concentrations of 10^−6, 10^−5, 10^−4, and 10^−3 M (in 10% of DMSO). Subsequently, 50 μL of the final TET assay buffer containing the TET1 protein and 5 μL of chelator’s solution was applied to each sample well. In control wells (TET1 without inhibitors), 5 μL of the final TET assay buffer with 10% DMSO was used instead of chelator’s solution. The final concentrations of chelators in a well plate were 10^−7, 10^−6, 10^−5, 10^−4, and 0 M with less than 1% of final concentration of DMSO. The following steps were performed according to manufacturer’s protocol. The TET1 protein converts methylated substrate to hydroxymethylated products, which could be recognized by a specific antibody. We determined the residual activity of the TET1 protein by measuring a fluorescence intensity on an enzyme-linked immunoabsorbent assay reader (ELISA), Infinite® 200 PRO (Tecan, Switzerland, Switzerland), at an excitation wavelength at 530 nm and an emission wavelength at 590 nm. Each concentration was measured twice within one test, and each test was repeated three times. IC50 values of active inhibitors were determined using GraphPad Prism 8 via nonlinear regression.

[1] = target: T2, recombinant His-tagged TET1 protein (Homo sapiens, UniProt Q8NFU7); assay: Microscale thermophoresis binding to His-tagged TET1; conditions: MST, HEPES pH 7.5, 50 nM TET1
T2 construct: purchased Active Motif, Carlsbad, CA, USA
T2 sequence (Q8NFU7 whole entry): as above
Procedure: We observed a ligand concentration-dependent decrease in labeled protein fluorescence (Figure 5), and fluorescence measurements during serial dilution were performed to discriminate between binding-specific fluorescence quenching (Figure 6) and loss of fluorescence due to protein precipitation.
For this test, the remainder of tubes 1 to 3 and 14 to 16 prepared in the original binding assay were centrifuged for 10 min at 15,000× g. Thereafter, 10 μL of each sample was removed and mixed with an equal volume of SD-mix (4% SDS and […] (assay buffer)) and heated to 95 °C for 5 min to denature the protein. Subsequently, samples were loaded to standard capillaries, and the fluorescence was detected using a Monolith NT.115. […] The KD value was calculated from ligand concentration-dependent changes in normalized fluorescence (Fnorm) of the TET1 protein after 25 s of thermophoresis, based on the law of mass action using the NT. Affinity Analysis software. […]
Microscale thermophoresis (MST) is a sensitive method that can be used to assess biomolecular interactions and has been utilized to study interactions between a variety of binding partners of different molecular sizes. […] Signals were recorded using 20% MST power and 40% LED power after 25 s. Measurement was repeated two times, and data were analyzed using the NTAnalysis software. […]

For Cc1ccc(-n2c(-c3ccc(C(=O)NN)cc3)cc3c2cc(-c2ccc(C(=O)NN)cc2)n3-c2ccc(C)cc2)cc1 [Compound 1], the “average residual TET activity (%)” value (TET1 protein; Log c 4) was 5.108%, the “average residual TET activity (%)” value (TET1 protein; Log c 5) was 19.97% and the “average residual TET activity (%)” value (TET1 protein; Log c 6) was 56.08%. The “average residual TET activity (%)” value (TET1 protein; Log c 7) was 82.59% and the Kd [1] was 27.2 ± 0.9 µM.

With Cc1ccc(-n2c(-c3ccc(C(=O)N/N=C/c4ccc(O)cc4O)cc3)cc3c2cc(-c2ccc(C(=O)N/N=C/c4ccc(O)cc4O)cc2)n3-c2ccc(C)cc2)cc1 [Compound 4] the “inhibitory activity towards TET1” value (TET1 protein) was “no inhibitory effect; also recorded: no significant inhibition”.

CCN(CC)c1ccc(/C=N/NC(=O)c2ccc(-c3cc4c(cc(-c5ccc(C(=O)N/N=C/c6ccc(N(CC)CC)cc6O)cc5)n4-c4ccc(C)cc4)n3-c3ccc(C)cc3)cc2)c(O)c1 [Compound 2] was tested, and the “inhibitory activity towards TET1” value (TET1 protein) was “no inhibitory effect; also recorded: no significant inhibition”.
